pIC50: −log10 of the molar value.
Key:
[1] = tested on: Human hepatic stellate cells; assay: Active human hepatic stellate cell dedifferentiation test (decrease in ACTA2 mRNA expression); type: cell-based; settings: 3 days differentiation then 2 days with compound, read-out: IC50 (rate of decrease in ACTA2 mRNA expression)
Method in brief: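 Human hepatic stellate cells differentiated 3 days in DMEM/10% FBS, then exposed to compound for 2 days (0.1% DMSO final) at 37° C. ACTA2 mRNA measured by RT-qPCR, normalized to GAPDH (comparative Ct). Decrease scaled between DMSO (100%) and start-of-differentiation cells (0%); IC50 derived from it.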

[2] = Transcellular transport test using Caco2 cell; type: in vitro ADME; settings: human, Caco-2; Caco2 monolayer, A-to-B, 10 μM compound, pH 7.4, 90 minutes
Method in brief: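 Caco2 monolayers grown 20 to 22 days on 0.4 μm polycarbonate inserts; 10 μM compound (0.1% DMSO) added apically in HBSS/20 mM HEPES pH 7.4, 90 min at 37° C. Basolateral compound quantified by LC-MS/MS; A-to-B Papp computed from transport slope, membrane area and UV-HPLC-measured donor concentration.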

What does the source list for `O=C(O)C[C@H](NC(=O)CNC(=O)c1cc(NC2=NCC(F)CN2)c2cn[nH]c2c1)c1cccc(Cl)c1` (stereo partly drawn) [Example 41-(b), (3S)-3-(3-chlorophenyl)-3-(2-(4-((5-fluoro-1,4,5,6-tetrahydropyrimidin-2-yl)amino)-1H-indazole-6-carboxamido)acetamido)propanoic acid]?
pIC50 [1]: 7.30 to 8.00; Papp A→B at 90 min, 10 μM [2]: > 1 ×10⁻⁶ cm/s

With `O=C(O)C[C@H](NC(=O)CNC(=O)c1cc(NC2=NCC(F)CN2)c2cn[nH]c2c1)c1cccc(Br)c1` (stereo partly drawn) [Example 42-(b), (3S)-3-(3-bromophenyl)-3-(2-(4-((5-fluoro-1,4,5,6-tetrahydropyrimidin-2-yl)amino)-1H-indazole-6-carboxamido)acetamido)propanoic acid] as the molecule, how does the pIC50 [1] read?
The pIC50 was 7.30 to 8.00.

What about the Papp A→B at 90 min, 10 μM [2] of the same molecule?
Its Papp A→B at 90 min, 10 μM is over 1 ×10⁻⁶ cm/s.

What does the source list for `O=C(O)C[C@H](NC(=O)CNC(=O)c1cc(NC2=NCC(F)CN2)c2cn[nH]c2c1)c1cccc(-n2cccn2)c1` (stereo partly drawn) [Example 43-(b), (3S)-3-(3-(1H-pyrazol-1-yl)phenyl)-3-(2-(4-((5-fluoro-1,4,5,6-tetrahydropyrimidin-2-yl)amino)-1H-indazole-6-carboxamido)acetamido)propanoic acid]?
pIC50 [1]: 7.30 to 8.00; Papp A→B at 90 min, 10 μM [2]: > 1 ×10⁻⁶ cm/s

Which results are given for `O=C(O)C[C@H](NC(=O)CNC(=O)c1cc(NC2=NCC(F)CN2)c2c(F)n[nH]c2c1)c1cc(Cl)cc(C(F)(F)F)c1` (stereo partly drawn) [Example 48-(b), (3S)-3-(3-chloro-5-(trifluoromethyl)phenyl)-3-(2-(3-fluoro-4-((5-fluoro-1,4,5,6-tetrahydropyrimidin-2-yl)amino)-1H-indazole-6-carboxamido)acetamido) propanoic acid]?
pIC50 [1]: > 8.00; Papp A→B at 90 min, 10 μM [2]: > 1 ×10⁻⁶ cm/s

What does the source list for `O=C(O)C[C@H](NC(=O)CNC(=O)c1cc(NC2=NCC(F)CN2)c2c(Cl)n[nH]c2c1)c1cc(Cl)cc(C(F)(F)F)c1` (stereo partly drawn) [Example 49-(b), (3S)-3-(2-(3-chloro-4-((5-fluoro-1,4,5,6-tetrahydropyrimidin-2-yl)amino)-1H-indazole-6-carboxamido)acetamido)-3-(3-chloro-5-(trifluoromethyl)phenyl)propanoic acid]?
pIC50 [1]: > 8.00; Papp A→B at 90 min, 10 μM [2]: 0.5 to 1 ×10⁻⁶ cm/s

Which results are given for `O=C(O)C[C@H](NC(=O)CNC(=O)c1cc(NC2=NCC(F)CN2)cc2[nH]ncc12)c1cc(Cl)cc(C(F)(F)F)c1` (stereo partly drawn) [Example 52-(b), (3S)-3-(3-chloro-5-(trifluoromethyl)phenyl)-3-(2-(6-((5-fluoro-1,4,5,6-tetrahydropyrimidin-2-yl)amino)-1H-indazole-4-carboxamido)acetamido)propanoic acid]?
pIC50 [1]: 7.30 to 8.00; Papp A→B at 90 min, 10 μM [2]: 0.1 to 0.5 ×10⁻⁶ cm/s

With `O=C(O)C[C@H](NC(=O)CNC(=O)c1cc(NC2=NCC(F)CN2)cc2[nH]ncc12)c1cc(Br)cc(C(F)(F)F)c1` (stereo partly drawn) [Example 53-(b), (3S)-3-(3-bromo-5-(trifluoromethyl)phenyl)-3-(2-(6-((5-fluoro-1,4,5,6-tetrahydropyrimidin-2-yl)amino)-1H-indazole-4-carboxamido)acetamido)propanoic acid] as the molecule, how does the pIC50 [1] read?
Its pIC50 is 7.30 to 8.00.

What about the Papp A→B at 90 min, 10 μM [2] of the same molecule?
The Papp A→B at 90 min, 10 μM was 0.1 to 0.5 ×10⁻⁶ cm/s.

With `O=C(O)C[C@H](NC(=O)CNC(=O)c1cc(NC2=NCC(F)CN2)cc2[nH]ncc12)c1cc(I)cc(C(F)(F)F)c1` (stereo partly drawn) [Example 54-(b), (3S)-3-(2-(6-((5-fluoro-1,4,5,6-tetrahydropyrimidin-2-yl)amino)-1H-indazole-4-carboxamido)acetamido)-3-(3-iodo-5-(trifluoromethyl)phenyl)propanoic acid] as the molecule, how does the pIC50 [1] read?
The pIC50 was 7.30 to 8.00.

And the Papp A→B at 90 min, 10 μM [2]?
The Papp A→B at 90 min, 10 μM was 0.1 to 0.5 ×10⁻⁶ cm/s.

With `O=C(O)C[C@H](NC(=O)CNC(=O)c1cc(NC2=NCC(F)CN2)cc2[nH]ncc12)c1ccc(F)c(C(F)(F)F)c1` (stereo partly drawn) [Example 55-(b), (3S)-3-(2-(6-((5-fluoro-1,4,5,6-tetrahydropyrimidin-2-yl)amino)-1H-indazole-4-carboxamido)acetamido)-3-(4-fluoro-3-(trifluoromethyl)phenyl)propanoic acid] as the molecule, how does the pIC50 [1] read?
Its pIC50 is over 8.00.

And the Papp A→B at 90 min, 10 μM [2]?
The Papp A→B at 90 min, 10 μM was 0.1 to 0.5 ×10⁻⁶ cm/s.

With `O=C(O)C[C@H](NC(=O)CNC(=O)c1cc(NC2=NCC(F)CN2)cc2[nH]ncc12)c1cccc(C(F)(F)F)c1` (stereo partly drawn) [Example 56-(b), (3S)-3-(2-(6-((5-fluoro-1,4,5,6-tetrahydropyrimidin-2-yl)amino)-1H-indazole-4-carboxamido)acetamido)-3-(3-(trifluoromethyl)phenyl)propanoic acid] as the molecule, how does the pIC50 [1] read?
The pIC50 was over 8.00.

What about the Papp A→B at 90 min, 10 μM [2] of the same molecule?
The Papp A→B at 90 min, 10 μM was 0.1 to 0.5 ×10⁻⁶ cm/s.

From patent publication US20230192661A1, “1, 4, 5, 6-TETRAHYDROPYRIMIDINE-2-AMINE DERIVATIVE” (UBE Corporation, priority 2020, published 2023)
